{"source": "patent EP3390415B1", "about": "“(R)- AND (S)-1-(3-(3-N,N-DIMETHYLAMINOCARBONYL)PHENOXYL-4-NITROPHENYL)-1-ETHYL-N,N'-BIS (ETHYLENE)PHOSPHORAMIDATE, COMPOSITIONS AND METHODS FOR THEIR USE AND PREPARATION” (OBI PHARMA, INC., priority 2015, dated 2017)", "key": {"[1]": {"test": "Acute toxicity study in monkeys, body weight", "type": "in vivo, Cynomolgus monkeys", "design": "unit not given here", "conditions": "2 mg/kg IV infusion", "protocol": "TH 3423 and TH 3424 were tested in no naive monkeys (1 male and one female for each compound at 2 mg/kg) with 30-min intravenous infusion, TK sampling: on Day 1 and Day 15: 0.25, 0.5, 0.75, 1 and 2 hr post infusion initiation. Serum chemistry and hematology: pre-dose (Day 1), day 5, day 8 (pre-dose), day 15 (pre-dose), day 22 and day 28. Clinical observation: Daily during the study, total 35 days. Food consumption: Daily during the study, total 35 days. Bodyweight measurement: Twice weekly for five weeks."}, "EC-GI-10": {"test_system": "EC-GI-10", "test": "In vitro human tumor cell line cytotoxicity assay", "type": "cell-based", "conditions": "read-out: RelIC50"}, "TE-9": {"test_system": "TE-9", "test": "In vitro human tumor cell line cytotoxicity assay", "type": "cell-based", "conditions": "read-out: RelIC50"}, "TALL-1": {"test_system": "TALL-1", "test": "In vitro human tumor cell line cytotoxicity assay", "type": "cell-based", "conditions": "read-out: RelIC50"}, "KG-1": {"test_system": "KG-1", "test": "In vitro human tumor cell line cytotoxicity assay", "type": "cell-based", "conditions": "read-out: RelIC50"}, "HepG2": {"test_system": "HepG2", "test": "In vitro human tumor cell line cytotoxicity assay", "type": "cell-based", "conditions": "for IC50: Homo sapiens"}, "[2]": {"test_system": "HepG2-GFP human hepatocellular carcinoma", "test": "Orthotopic mouse model of human liver cancer, tumor burden", "type": "in vivo, athymic nude mice", "conditions": "for tumor inhibition rate IR(%): from final average tumor weights", "protocol": "Female athymic nude mice (6 weeks of age) were used in this study. The animals were purchased from Beijing HFK Bioscience, Co., Ltd and maintained in a High Efficiency Particulate Air Filter (HEPA) filtered environment with cages, food, and bedding sterilized by irradiation or autoclaving. A total of 32 nude mice were used for the study. HepG2-GFP human hepatocellular carcinoma cells (AntiCancer, Inc., San Diego, CA) were incubated with RPMI-1640 (Gibco-BRL, Life Technologies, Inc.), which contained 10% FBS. Cells were grown in a CO2 Water Jacketed Incubator (Forma Scientific) maintaining 37°C and a 5% CO2/95% air atmosphere. Cell viability was determined by trypan blue exclusion analysis. Five female athymic nude mice were injected subcutaneously with a single dose of 5 x 10^6 HepG2-GFP cells. Tumors were harvested when their size reached 1cm^3 and the tumor tissues were then cut into small fragments of 1mm^3. Forty female nude mice were implanted orthotopically with a single piece of tumor fragment, which was derived from a subcutaneous tumor model of HepG2-GFP human hepatocellular carcinoma. The tumor tissue was orthotopically implanted in the right lobe of the liver in each mouse by SOI (Surgical Orthotopic Implantation). Briefly, an upper abdominal incision of 1cm was made under anesthesia. Right lobe of the liver was exposed and a part of the liver surface was injured mechanically by scissors. Then a piece of tumor fragment was fixed within the liver tissue, the liver was returned to the peritoneal cavity and the abdominal wall finally closed. Mice were kept in laminar-flow cabinets under specific pathogen-free-conditions.\nTreatment was started three days after tumor implantation when the implanted tumors reached an average size of around 1 mm^2. The 32 tumor-bearing mice were randomly divided into four experimental groups of 8 mice each. Each cage was clearly marked for its group with four mice per cage. […] Table. Groups and treatment protocol\nDuring the period of the study, all of the experimental mice were checked daily for mortality or signs of morbidity. […] The body weights of the mice were measured twice weekly during the study period. Images of tumor growth and progression were acquired twice a week during the period of the study with the FluorVivo imaging system, Model 300/Mag (INDEC, CA, USA). […] Livers were exposed for imaging, after which the tumors were removed and weighted with an electronic balance (Sartorius BS 124 S, Germany). Tumor tissues were kept in formalin for further analysis. Comparisons of body weights and tumor burdens in different groups were analyzed using the Student's t-test with an α = 0.05 (two-sided). After intravenously injection of the test agents, the mice had no lying, no autonomous activity reduction. The experimental animals were generally in good condition. Table. Comparison of mean mice body weight at the end of the study\nThe progressions of orthotopic HepG2-GFP hepatocellular carcinoma in different groups were monitored by real time imaging. Images were acquired twice a week. Typical tumor images at the end of the study in each group and tumor growth curves derived from the signals of tumor fluorescence, which were analyzed using the Power Station software (INDEC Biosystems, CA, USA), are shown in figure 6 and figure 7, respectively Table. Average tumor size in each group (mm2)"}, "GR-ST": {"test_system": "GR-ST", "test": "In vitro human tumor cell line cytotoxicity assay", "type": "cell-based", "conditions": "read-out: RelIC50"}, "HCCC9810": {"test_system": "HCCC9810", "test": "In vitro human tumor cell line cytotoxicity assay", "type": "cell-based", "conditions": "for IC50: Homo sapiens"}, "HEL": {"test_system": "HEL", "test": "In vitro human tumor cell line cytotoxicity assay", "type": "cell-based", "conditions": "read-out: RelIC50"}, "NOMO-1": {"test_system": "NOMO-1", "test": "In vitro human tumor cell line cytotoxicity assay", "type": "cell-based", "conditions": "read-out: RelIC50"}, "[3]": {"test": "Body weight and toxicity in the orthotopic liver cancer mouse model", "type": "in vivo, athymic nude mice", "conditions": "intra-peritoneal, low or high dose (2.5 and 5 mg/kg)"}, "HL-60 Clone": {"test_system": "HL-60 Clone", "test": "In vitro human tumor cell line cytotoxicity assay", "type": "cell-based", "conditions": "read-out: RelIC50"}}, "note": "Where “and” joins values, the source holds several entries; their conditions need not be identical. Equal entries are not always repeated. Where two headings read alike, the source gives them in different places."}
{"smiles": "C[C@H](OP(=O)(N1CC1)N1CC1)c1ccc([N+](=O)[O-])c(Oc2cccc(C(=O)N(C)C)c2)c1", "note": "(single isomer, unassigned) [TH3424]", "values": [{"measurement": "body weight", "setting": "[1]; Mean, Day 1", "result": 3.34}, {"measurement": "body weight", "setting": "[1]; Mean, Day 4", "result": 3.26}, {"measurement": "body weight", "setting": "[1]; Mean, Day 8", "result": 3.20}, {"measurement": "body weight", "setting": "[1]; Mean, Day 11", "result": 3.06}, {"measurement": "body weight", "setting": "[1]; female, Day 1", "result": 3.28}, {"measurement": "body weight", "setting": "[1]; female, Day 4", "result": 3.22}, {"measurement": "body weight", "setting": "[1]; female, Day 8", "result": 3.08}, {"measurement": "body weight", "setting": "[1]; female, Day 11", "result": 2.94}, {"measurement": "body weight", "setting": "[1]; male, Day 1", "result": 3.40}, {"measurement": "body weight", "setting": "[1]; male, Day 4", "result": 3.30}, {"measurement": "body weight", "setting": "[1]; male, Day 8", "result": 3.31}, {"measurement": "body weight", "setting": "[1]; male, Day 11", "result": 3.17}, {"measurement": "IC50", "setting": "EC-GI-10", "result": 13, "unit": "nM"}, {"measurement": "IC50", "setting": "TE-9", "result": 11, "unit": "nM"}, {"measurement": "IC50", "setting": "TALL-1", "result": 30, "unit": "nM"}, {"measurement": "IC50", "setting": "KG-1", "result": 15.3, "unit": "nM"}, {"measurement": "Max Inhibition%", "setting": "HepG2", "result": 100.2, "unit": "%"}, {"measurement": "Min Inhibition%", "setting": "HepG2", "result": 3.4, "unit": "%"}, {"measurement": "IC50", "setting": "HepG2; read-out: AbsIC50", "result": 8.6, "unit": "nM"}, {"measurement": "IC50", "setting": "HepG2; read-out: RelIC50", "result": 7.3, "unit": "nM"}, {"measurement": "Tumor area (mm^2) (mean ± sd)", "setting": "[2]; 2.5mg/kg, QWx6, I.P., Day 35", "result": "1.2 ± 1.1 mm^2 and 1.2 ± 1.1(Day 35) mm^2"}, {"measurement": "Tumor area (mm^2) (mean ± sd)", "setting": "[2]; 2.5mg/kg, QWx6, I.P., Day 49", "result": "2.0 ± 2.2 mm^2 and 2.0 ± 2.2(Day 49) mm^2"}, {"measurement": "Tumor weight (g) (mean ± sd)", "setting": "[2]; 2.5mg/kg, QWx6, I.P., Day 49", "result": "0.0081±0.0088 g and 0.0081±0.0088 (Day 49) g"}, {"measurement": "average fluorescence imaging readout area as % of that in the negative control group", "setting": "[2]; 2.5 mg/kg, day 35", "result": "around 8%"}, {"measurement": "average fluorescence imaging readout area as % of that in the negative control group", "setting": "[2]; 2.5 mg/kg, day 49 after treatment", "result": "around 8%"}, {"measurement": "tumor inhibition rate IR(%)", "setting": "[2]; 2.5 mg/kg", "result": 94.8, "unit": "%"}, {"measurement": "Tumor area (mm^2) (mean ± sd)", "setting": "[2]; 5mg/kg, QWx3, I.P.", "result": "0 mm^2 and 0.0 ± 0.0 mm^2"}, {"measurement": "Tumor weight (g) (mean ± sd)", "setting": "[2]; 5mg/kg, QWx3, I.P.", "result": "0 g and 0.0000 ± 0.0000 g"}, {"measurement": "tumor inhibition rate IR(%)", "setting": "[2]; 5mg/kg", "result": 100, "unit": "%"}, {"measurement": "average tumor weight as % of that in the negative control group", "setting": "[2]; high dose group, 5mg/kg", "result": 0, "unit": "%"}, {"measurement": "average tumor weight as % of that in the negative control group", "setting": "[2]; low dose group, 2.5mg/kg", "result": 5.2, "unit": "%"}, {"measurement": "IC50", "setting": "GR-ST", "result": 99, "unit": "nM"}, {"measurement": "Max Inhibition%", "setting": "HCCC9810", "result": 95.4, "unit": "%"}, {"measurement": "Min Inhibition%", "setting": "HCCC9810", "result": 2.1, "unit": "%"}, {"measurement": "IC50", "setting": "HCCC9810; read-out: AbsIC50", "result": 13.9, "unit": "nM"}, {"measurement": "IC50", "setting": "HCCC9810; read-out: RelIC50", "result": 13.4, "unit": "nM"}, {"measurement": "IC50", "setting": "HEL", "result": 224, "unit": "nM"}, {"measurement": "IC50", "setting": "NOMO-1", "result": 11, "unit": "nM"}, {"measurement": "toxicity to the experimental mice", "setting": "[3]", "result": "no obvious toxicity"}, {"measurement": "toxicity to the experimental mice", "setting": "[3]; listed as TH2870-2", "result": "no obvious acute toxicity"}, {"measurement": "IC50", "setting": "HL-60 Clone", "result": 52.6, "unit": "nM"}]}
